Legend:
PC-3 = experiment: Growth inhibition of human PC3 cells incubated for 48 hrs by sulforhodamine B assay; format: functional, cell-based; settings: PC-3, 48 h
MOLT-4 = experiment: Growth inhibition of human MOLT4 cells assessed as cell growth at 0.01 uM incubated for 48 hrs by sulforhodamine B assay relative to control; format: functional; settings: MOLT-4, 48 h, read-out: Activity
MDA-MB-468 = experiment: Growth inhibition of human MDA-MB-468 cells assessed as cell growth at 1 uM incubated for 48 hrs by sulforhodamine B assay relative to control; format: functional; settings: MDA-MB-468, 48 h, read-out: Activity
MCF7 = experiment: Growth inhibition of human MCF7 cells assessed as cell growth at 100 uM incubated for 48 hrs by sulforhodamine B assay relative to control; format: functional; settings: MCF7, 48 h, read-out: Activity
SNB-19 = experiment: Growth inhibition of human SNB19 cells assessed as cell growth at 100 uM incubated for 48 hrs by sulforhodamine B assay relative to control; format: functional; settings: SNB-19, 48 h, read-out: Activity
NCI-H460 [1] = experiment: Growth inhibition of human NCI-H460 cells assessed as cell growth at 0.01 uM incubated for 48 hrs by sulforhodamine B assay relative to control; format: functional; settings: NCI-H460, 48 h, read-out: Activity
SK-MEL-5 = experiment: Growth inhibition of human SK-MEL-5 cells assessed as cell growth at 100 uM incubated for 48 hrs by sulforhodamine B assay relative to control; format: functional; settings: SK-MEL-5, 48 h, read-out: Activity
HCT-15 = experiment: Growth inhibition of human HCT15 cells assessed as cell growth at 1 uM incubated for 48 hrs by sulforhodamine B assay relative to control; format: functional; settings: HCT-15, 48 h, read-out: Activity
A549 = experiment: Growth inhibition of human A549/ATCC cells incubated for 48 hrs by sulforhodamine B assay; format: functional, cell-based; settings: A549, 48 h
786-0 = experiment: Growth inhibition of human 786-0 cells assessed as cell growth at 1 uM incubated for 48 hrs by sulforhodamine B assay relative to control; format: functional; settings: 786-0, 48 h, read-out: Activity
NCI-H322M = experiment: Growth inhibition of human NCI-H322M cells assessed as cell growth at 1 uM incubated for 48 hrs by sulforhodamine B assay relative to control; format: functional; settings: read-out: Activity
MDA-MB-231 = experiment: Growth inhibition of human MDA-MB-231 cells assessed as cell growth at 1 uM incubated for 48 hrs by sulforhodamine B assay relative to control; format: functional; settings: MDA-MB-231, 48 h, read-out: Activity
Malme-3M = experiment: Growth inhibition of human MALME-3M cells assessed as cell growth at 0.01 uM incubated for 48 hrs by sulforhodamine B assay relative to control; format: functional; settings: read-out: Activity
IGROV-1 = experiment: Growth inhibition of human IGROV1 cells assessed as cell growth at 1 uM incubated for 48 hrs by sulforhodamine B assay relative to control; format: functional; settings: IGROV-1, 48 h, read-out: Activity
SK-MEL-2 = experiment: Growth inhibition of human SK-MEL-2 cells assessed as cell growth at 1 uM incubated for 48 hrs by sulforhodamine B assay relative to control; format: functional; settings: SK-MEL-2, 48 h, read-out: Activity
NCI/ADR-RES = experiment: Growth inhibition of human NCI/ADR-RES cells incubated for 48 hrs by sulforhodamine B assay; format: functional, cell-based
HCT-116 [2] = experiment: Growth inhibition of human HCT116 cells assessed as cell growth at 1 uM incubated for 48 hrs by sulforhodamine B assay relative to control; format: functional; settings: HCT-116, 48 h, read-out: Activity
OVCAR-3 = experiment: Growth inhibition of human OVCAR3 cells assessed as cell growth at 0.01 uM incubated for 48 hrs by sulforhodamine B assay relative to control; format: functional; settings: OVCAR-3, 48 h, read-out: Activity
NCI-H23 = experiment: Growth inhibition of human NCI-H23 cells incubated for 48 hrs by sulforhodamine B assay; format: functional, cell-based; settings: NCI-H23, 48 h
MDA-MB-435 = experiment: Growth inhibition of human MDA-MB-435 cells assessed as cell growth at 1 uM incubated for 48 hrs by sulforhodamine B assay relative to control; format: functional; settings: MDA-MB-435, 48 h, read-out: Activity
HT-29 = experiment: Growth inhibition of human HT-29 cells assessed as cell growth at 0.1 uM incubated for 48 hrs by sulforhodamine B assay relative to control; format: functional; settings: HT-29, 48 h, read-out: Activity
M14 = experiment: Growth inhibition of human M14 cells assessed as cell growth at 0.1 uM incubated for 48 hrs by sulforhodamine B assay relative to control; format: functional; settings: M14, 48 h, read-out: Activity
OVCAR-4 = experiment: Growth inhibition of human OVCAR4 cells assessed as cell growth at 100 uM incubated for 48 hrs by sulforhodamine B assay relative to control; format: functional; settings: OVCAR-4, 48 h, read-out: Activity
HCT-116 [3] = experiment: Growth inhibition of human HCT116 cells assessed as cell growth at 100 uM incubated for 48 hrs by sulforhodamine B assay relative to control; format: functional; settings: HCT-116, 48 h, read-out: Activity
SR = experiment: Growth inhibition of human SR cells assessed as cell growth at 1 uM incubated for 48 hrs by sulforhodamine B assay relative to control; format: functional; settings: read-out: Activity
SN12C = experiment: Growth inhibition of human SN12C cells assessed as cell growth at 100 uM incubated for 48 hrs by sulforhodamine B assay relative to control; format: functional; settings: read-out: Activity
SK-MEL-28 = experiment: Growth inhibition of human SK-MEL-28 cells assessed as cell growth at 1 uM incubated for 48 hrs by sulforhodamine B assay relative to control; format: functional; settings: SK-MEL-28, 48 h, read-out: Activity
NCI-H460 [4] = experiment: Growth inhibition of human NCI-H460 cells assessed as cell growth at 100 uM incubated for 48 hrs by sulforhodamine B assay relative to control; format: functional; settings: NCI-H460, 48 h, read-out: Activity
HCT-116 [5] = experiment: Growth inhibition of human HCT116 cells assessed as cell growth at 0.01 uM incubated for 48 hrs by sulforhodamine B assay relative to control; format: functional; settings: HCT-116, 48 h, read-out: Activity
COLO 205 = experiment: Growth inhibition of human COLO205 cells assessed as cell growth at 1 uM incubated for 48 hrs by sulforhodamine B assay relative to control; format: functional; settings: COLO 205, 48 h, read-out: Activity
NCI-H460 [6] = experiment: Growth inhibition of human NCI-H460 cells assessed as cell growth at 0.1 uM incubated for 48 hrs by sulforhodamine B assay relative to control; format: functional; settings: NCI-H460, 48 h, read-out: Activity
[7] = read-out: LC50 (the source's name)
[8] = read-out: pLC50 (the source's name) (converted)

O=C(Nc1cccc(-n2cc(-c3ccncc3)c(-c3cc(O)cc(Cl)c3)n2)c1)Nc1ccc(Cl)c(C(F)(F)F)c1
IC50 (PC-3): 2.1 µM | GI50 (PC-3; read-out: GI50): 2.1 µM | CC50 (PC-3; [7]): 90.3 µM | TGI (PC-3; read-out: TGI): 84.2 µM | GI50 (PC-3; read-out: pGI50 (converted)): 2.63 µM | CC50 (PC-3; [8]): 79.4 µM | TGI (PC-3; read-out: pTGI (converted)): 6.46 µM | growth at 0.01 µM (MOLT-4): 100% | growth at 1 µM (MDA-MB-468): 75% | growth at 100 µM (MCF7): -43% | growth at 100 µM (SNB-19): -33% | growth at 0.01 µM (NCI-H460 [1]): 101% | growth at 100 µM (SK-MEL-5): -97% | growth at 1 µM (HCT-15): 90% | IC50 (A549): 2.33 µM | GI50 (A549; read-out: GI50): 2.33 µM | CC50 (A549; [7]): > 100 µM | TGI (A549; read-out: TGI): 92 µM | GI50 (A549; read-out: pGI50 (converted)): 2.34 µM | CC50 (A549; [8]): > 100 µM | TGI (A549; read-out: pTGI (converted)): 9.12 µM | growth at 1 µM (786-0): 84% | growth at 1 µM (NCI-H322M): 93% | growth at 1 µM (MDA-MB-231): 77% | growth at 0.01 µM (Malme-3M): 93% | growth at 1 µM (IGROV-1): 113% | growth at 1 µM (SK-MEL-2): 104% | GI50 (NCI/ADR-RES; read-out: GI50): 3.41 µM | CC50 (NCI/ADR-RES; [7]): > 100 µM | TGI (NCI/ADR-RES; read-out: TGI): 23.6 µM | GI50 (NCI/ADR-RES; read-out: pGI50 (converted)): 3.39 µM | CC50 (NCI/ADR-RES; [8]): > 100 µM | TGI (NCI/ADR-RES; read-out: pTGI (converted)): 23.4 µM | growth at 1 µM (HCT-116 [2]): 91% | growth at 0.01 µM (OVCAR-3): 101% | GI50 (NCI-H23; read-out: GI50): 2.58 µM | LC50 (NCI-H23; read-out: LC50): 45.1 µM | TGI (NCI-H23; read-out: TGI): 74 µM | GI50 (NCI-H23; read-out: pGI50 (converted)): 2.57 µM | LC50 (NCI-H23; read-out: pLC50 (converted)): 45.7 µM | TGI (NCI-H23; read-out: pTGI (converted)): 7.41 µM | growth at 1 µM (MDA-MB-435): 57% | growth at 0.1 µM (HT-29): 93% | growth at 0.1 µM (M14): 91% | growth at 100 µM (OVCAR-4): -10% | growth at 100 µM (HCT-116 [3]): -57% | growth at 1 µM (SR): 57% | growth at 100 µM (SN12C): -32% | growth at 1 µM (SK-MEL-28): 81% | growth at 100 µM (NCI-H460 [4]): -52% | growth at 0.01 µM (HCT-116 [5]): 104% | growth at 1 µM (COLO 205): 99% | growth at 0.1 µM (NCI-H460 [6]): 102%

From ChEMBL document CHEMBL4308841, “Synthesis, in vitro antiproliferative activity, and kinase inhibitory effects of pyrazole-containing diarylureas and diarylamides” (Eur J Med Chem, 2018)
